Test results reported in ChEMBL document CHEMBL1201862, “PubChem BioAssay data set” (2004).
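Cultured in 96-well plates, cells were exposed to test compound for 48 hours across five concentrations. The concentration for 50% growth inhibition is given as GI50.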 Active and inactive are the calls of the source. No stated cut-off is given here; in the data, active = GI50 up to about 1.1 µM and inactive = higher.

Assays:
Experiment in all cases: DTP human tumour cell line panel, 48 h
HCT-116 = tested on: HCT-116
UO-31 = tested on: UO-31
ACHN = tested on: ACHN
MDA-MB-231 = tested on: MDA-MB-231
SK-OV-3 = tested on: SK-OV-3
OVCAR-3 = tested on: OVCAR-3
SNB-75 = tested on: SNB-75
A549 = tested on: A549
SW-620 = tested on: SW-620
PC-3 = tested on: PC-3
IGROV-1 = tested on: IGROV-1
M14 = tested on: M14
HOP-62 = tested on: HOP-62
COLO 205 = tested on: COLO 205
K562 = tested on: K562
U-251 = tested on: U-251
NCI-H226 = tested on: NCI-H226
UACC-257 = tested on: UACC-257
A498 = tested on: A498

Measured: GI50

CCSc1n/c(=C\c2ccco2)c2nncn12
inactive: HCT-116 > 100 µM | UO-31 > 100 µM | ACHN > 100 µM | MDA-MB-231 > 100 µM | SK-OV-3 > 100 µM | OVCAR-3 > 100 µM | SNB-75 > 100 µM | A549 > 100 µM | SW-620 > 100 µM | PC-3 > 100 µM | IGROV-1 > 100 µM | M14 > 100 µM | HOP-62 > 100 µM | COLO 205 > 100 µM | K562 > 100 µM | U-251 > 100 µM | NCI-H226 > 100 µM

CSc1ccc(NC(=O)CCl)cc1
inactive: HCT-116 3.03 µM | UO-31 2.23 µM | ACHN > 10 µM | MDA-MB-231 7.31 µM | SK-OV-3 > 10 µM | OVCAR-3 3.75 µM | SNB-75 2.53 µM | A549 2.44 µM | SW-620 8.32 µM | PC-3 3.9 µM | IGROV-1 4.73 µM | M14 1.92 µM | HOP-62 3.52 µM | COLO 205 3.02 µM | K562 3.13 µM | U-251 5.19 µM | UACC-257 6.18 µM | NCI-H226 > 10 µM

O=C(Nc1cc(Cl)c(Cl)cc1Cl)C(=O)C1C=CCS1(=O)=O (stereo not drawn)
inactive: HCT-116 > 100 µM | UO-31 > 100 µM | ACHN > 100 µM | SK-OV-3 > 100 µM | OVCAR-3 > 100 µM | SNB-75 72.6 µM | A549 > 100 µM | SW-620 > 100 µM | IGROV-1 > 100 µM | M14 > 100 µM | HOP-62 > 100 µM | COLO 205 > 100 µM | A498 > 100 µM | K562 > 100 µM | U-251 > 100 µM | UACC-257 > 100 µM | NCI-H226 87.3 µM

CCC(C)(C)/C(CC(O)(C(F)(F)F)C(F)(F)F)=N\O
inactive: HCT-116 > 100 µM | UO-31 > 100 µM | ACHN > 100 µM | MDA-MB-231 > 100 µM | SK-OV-3 > 100 µM | OVCAR-3 > 100 µM | SNB-75 > 100 µM | A549 > 100 µM | SW-620 > 100 µM | PC-3 > 100 µM | IGROV-1 > 100 µM | M14 > 100 µM | HOP-62 > 100 µM | COLO 205 > 100 µM | A498 > 100 µM | K562 > 100 µM | U-251 > 100 µM | NCI-H226 > 100 µM

CC(=O)[C@]12OC(=O)C3=C1[C@H](CC[C@@H]3C)[C@@H](C)C[C@H]2C=C(C)C
inactive: HCT-116 6.55 µM | UO-31 8.22 µM | ACHN 8.11 µM | MDA-MB-231 8.2 µM | SK-OV-3 11 µM | OVCAR-3 7.31 µM | A549 7.48 µM | SW-620 7.55 µM | PC-3 9.2 µM | IGROV-1 7.35 µM | M14 8.39 µM | HOP-62 8.61 µM | COLO 205 8.79 µM | A498 7.96 µM | K562 5.6 µM | U-251 7.8 µM | UACC-257 9.75 µM | NCI-H226 8.28 µM

C=Cc1c(C)c(OC)cc2c1Oc1ccc(OC)c(C)c1CC2
inactive: HCT-116 > 100 µM | UO-31 > 100 µM | ACHN > 100 µM | MDA-MB-231 > 100 µM | SK-OV-3 > 100 µM | SNB-75 84.3 µM | A549 > 100 µM | SW-620 > 100 µM | PC-3 52.6 µM | IGROV-1 > 100 µM | M14 > 100 µM | HOP-62 > 100 µM | COLO 205 > 100 µM | A498 > 100 µM | K562 > 100 µM | U-251 > 100 µM | UACC-257 43.5 µM | NCI-H226 39.9 µM

N/C(=N\O)NCCN1CCCCCCC1
inactive: HCT-116 12.1 µM | UO-31 > 100 µM | ACHN 20.1 µM | MDA-MB-231 > 100 µM | SK-OV-3 > 100 µM | OVCAR-3 > 100 µM | SNB-75 > 100 µM | A549 > 100 µM | SW-620 > 100 µM | PC-3 28.4 µM | IGROV-1 26.7 µM | M14 > 100 µM | HOP-62 > 100 µM | COLO 205 > 100 µM | A498 > 100 µM | K562 > 100 µM | UACC-257 > 100 µM | NCI-H226 > 100 µM

COc1cccc(C2c3cc4c(cc3OC(N3CCCC3)C2C)OCO4)c1OC (stereo not drawn)
inactive: HCT-116 1.64 µM | UO-31 2.27 µM | ACHN 2.49 µM | OVCAR-3 1.66 µM | A549 3.53 µM | SW-620 1.65 µM | PC-3 4.48 µM | IGROV-1 2.78 µM | M14 9.08 µM | HOP-62 8.17 µM | COLO 205 3.46 µM | K562 3.17 µM | UACC-257 1.72 µM

C1CCCCC2(CCCCCCCCC3(CCC1)SCCS3)SCCS2
inactive: HCT-116 > 100 µM | ACHN > 100 µM | SK-OV-3 > 100 µM | OVCAR-3 > 100 µM | SNB-75 > 100 µM | A549 > 100 µM | SW-620 > 100 µM | PC-3 > 100 µM | IGROV-1 > 100 µM | M14 > 100 µM | HOP-62 > 100 µM | COLO 205 > 100 µM | A498 > 100 µM | K562 > 100 µM | U-251 > 100 µM | UACC-257 > 100 µM | NCI-H226 > 100 µM

Cc1cc(N(CCC#N)CCC#N)ccc1/C=N/NC(=O)c1cc(Cl)ccc1O
inactive: HCT-116 > 100 µM | MDA-MB-231 > 100 µM | SK-OV-3 > 100 µM | OVCAR-3 > 100 µM | SNB-75 34.1 µM | A549 > 100 µM | PC-3 > 100 µM | IGROV-1 > 100 µM | M14 > 100 µM | HOP-62 60.3 µM | COLO 205 > 100 µM | A498 > 100 µM | U-251 49.3 µM | UACC-257 > 100 µM | NCI-H226 > 100 µM

COc1ccc(NC(=O)CCc2cc(C(C)(C)C)[nH]n2)cc1
inactive: HCT-116 > 100 µM | UO-31 > 100 µM | ACHN > 100 µM | SK-OV-3 > 100 µM | OVCAR-3 > 100 µM | SNB-75 > 100 µM | A549 > 100 µM | SW-620 > 100 µM | IGROV-1 > 100 µM | M14 > 100 µM | HOP-62 > 100 µM | COLO 205 > 100 µM | A498 > 100 µM | K562 > 100 µM | U-251 > 100 µM | UACC-257 > 100 µM | NCI-H226 > 100 µM

Cc1nc2c(O)cc3c4c(n(Cc5ccccc5)c3c2nc1C)C(=O)CCC4
inactive: HCT-116 34.4 µM | UO-31 56 µM | ACHN 25.2 µM | MDA-MB-231 > 100 µM | SK-OV-3 14.6 µM | OVCAR-3 28.2 µM | A549 50.5 µM | SW-620 > 100 µM | PC-3 49.7 µM | M14 53.2 µM | HOP-62 12.7 µM | COLO 205 83 µM | A498 34 µM | K562 93.5 µM | U-251 12 µM | UACC-257 > 100 µM | NCI-H226 > 100 µM
